From ChEMBL document CHEMBL3600296, “Synthesis and evaluation of pyrrolotriazine based molecules as PI3 kinase inhibitors” (Bioorg Med Chem Lett, 2015)

What was measured:
Conditions in all cases: 2 h
[1] = Metabolic stability in mouse liver microsomes at 10 uM up to 120 mins by HPLC analysis; format: ADME
Liver microsome [2] = test: Metabolic stability in human liver microsomes at 10 uM up to 120 mins by HPLC analysis; format: ADME
Liver microsome [3] = test: Metabolic stability in dog liver microsomes at 10 uM up to 120 mins by HPLC analysis; format: ADME, Canis lupus familiaris

Measured: Stability

Nc1ncc(-c2nc(N3CCOCC3)c3cccn3n2)cn1
Stable: all assays above

c1cc(-c2nc(N3CCOCC3)c3cccn3n2)c2cn[nH]c2c1
Stable: all assays above

COCc1ccc2c(N3CCOCC3)nc(-c3cnc(N)nc3)nn12
Stable: all assays above
